Reference: EP0346108A2, “Anti-infective nucleosides” (THE WELLCOME FOUNDATION LIMITED, priority 1988, dated 1989)

Experiments:
[1] = Determination of oral bioavailability by urinary recovery as parent compound; settings: gavage, 50 mg/kg; urine collected for 24 and 48 hours post-dose
Experimental: Long Evans Rats were administered the compound to be tested by gavage at a dose of 50 mg/kg. The urine was collected for 24 and 48 hours post-dose, ultrafiltered, and analysed by reverse-phase high-pressure liquid chromatography. The oral bioavailability of the compound was expressed as the percent of the dose excreted in the urine as the parent unesterified compound.

[2] = test system: Varicella Zoster Virus (VZV); test: VZV plaque reduction assay in monolayers of MRC5 cells; assay type: cell-based; settings: MRC5 cells (human embryonic lung), read-out: ID₅₀(µm) VZV
Experimental: Varicella Zoster Virus (VZV) is assayed in monolayers of MRC5 cells (human embryonic lung) in multiwell trays. Activity of compounds is determined in the plaque reduction assay, in which a cell monolayer is infected with a suspension of VZV. A range of concentrations of the compound to be tested (of known molarity) is then incorporated into the cell monolayer. Plaque numbers of each concentration are expressed as percentage of the control and a dose-response curve is drawn. From this curve the 50% inhibitory concentration (IC₅₀) is estimated.

Vero cells = test: Cell toxicity, cell growth inhibition assay (MTT uptake); assay type: cell-based; settings: 50% inhibition of cell viability at 96 hours
Experimental: Cell toxicity is assessed in cell growth inhibition assay. Subconfluent cultures of Vero cells grown on 96-well microtiter dishes are exposed to different dilutions of drug, and cell viability determined daily on replicate cultures using uptake of a tetrazolium dye (MTT). The concentration required for a 50% inhibition of cell vaibility at 96 hours is termed CCID₅₀.

| Compound | Urinary Recovery (% of dose) as parent compound [1] | IC50 [2] | CCID₅₀ (Vero cells) |
| --- | --- | --- | --- |
| CC#Cc1cn([C@@H]2O[C@H](COC(=O)C(C)C)[C@@H](O)[C@@H]2O)c(=O)[nH]c1=O [Example 1, 1-(5-0-Isobutyryl-β-D-arabinofuranosyl)-5-prop-1-ynyluracil] | 40.35 % of dose | – | – |
| CC#Cc1cn([C@@H]2O[C@H](COC(=O)[C@@H](N)C(C)C)[C@@H](O)[C@@H]2O)c(=O)[nH]c1=O [Example 20, 5-Prop-1-ynyl-1-(5-0-L-valyl-β-D-arabinofuranosyl)uracil] | 35.90 % of dose | < 1000 nM | >500 |
